Biological target: T1, human PAH with the R408W mutation (A375 R408W cells) (Homo sapiens, UniProt P00439, R408W)
T1 construct: expressed in transfected cells
T1 sequence (P00439 1-452 R408W): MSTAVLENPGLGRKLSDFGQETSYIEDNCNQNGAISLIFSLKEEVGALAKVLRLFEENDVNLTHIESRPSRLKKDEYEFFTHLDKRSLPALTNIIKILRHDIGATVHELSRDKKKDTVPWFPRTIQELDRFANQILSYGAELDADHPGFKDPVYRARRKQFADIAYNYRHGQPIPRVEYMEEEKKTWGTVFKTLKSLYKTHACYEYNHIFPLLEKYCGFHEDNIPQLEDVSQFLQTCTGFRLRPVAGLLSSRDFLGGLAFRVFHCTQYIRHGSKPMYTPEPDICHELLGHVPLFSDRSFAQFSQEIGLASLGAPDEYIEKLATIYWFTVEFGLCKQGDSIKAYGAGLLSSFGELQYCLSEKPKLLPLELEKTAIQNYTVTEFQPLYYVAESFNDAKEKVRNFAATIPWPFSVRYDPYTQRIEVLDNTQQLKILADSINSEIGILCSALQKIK
Experiment: Cell Based Phenylalanine Flux Assay
Settings: A375 R408W cells; 24 hrs with compound, then 20 μM sepiapterin and 800 μM 13C9,15N-Phenylalanine for 4 hours; 13C-Tyrosine by LC-MS; average where tested multiple times
Outline: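 A375 cells stably expressing lentiviral human PAH R408W were treated with compounds (10-point 2-fold dilutions, 0.5% DMSO, duplicate) for 24 h at 37 °C. Then 20 μM sepiapterin and 800 μM 13C9,15N-Phe were added for 4 h; media 13C-Tyr was measured by LC-MS to give AC50.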

Row | Compound | AC50
1 | O=C(CCc1nccs1)N1CCc2[nH]cnc2[C@H]1c1nc2c(F)cccc2o1 [Example 397, (S)-1-(4-(4-fluorobenzo[d]oxazol-2-yl)-6,7-dihydro-1H-imidazo[4,5-c]pyridin-5(4H)-yl)-3-(thiazol-2-yl)propan-1-one] | 0.5 to 1 µM
2 | O=C(c1nnc(-c2cccnc2)o1)N1CCc2[nH]cnc2[C@@H]1c1nc2cc(F)ccc2o1 [Example 400, (R)-(4-(5-fluorobenzo[d]oxazol-2-yl)-6,7-dihydro-1H-imidazo[4,5-c]pyridin-5(4H)-yl)(5-(pyridin-3-yl)-1,3,4-oxadiazol-2-yl)methanone] | 1 to 5 µM
3 | Cc1ccc2oc([C@H]3c4nc[nH]c4CCN3C(=O)c3nnc(-c4cc[nH]n4)o3)nc2c1 [Example 356, (R)-(5-(1H-pyrazol-3-yl)-1,3,4-oxadiazol-2-yl)(4-(5-methylbenzo[d]oxazol-2-yl)-6,7-dihydro-1H-imidazo[4,5-c]pyridin-5(4H)-yl)methanone] | 1 to 5 µM
4 | COCc1nc(C(F)F)c(C(=O)N2CCc3[nH]cnc3[C@@H]2c2nc3cc(F)ccc3o2)o1 [Example 109, (R)-(4-(difluoromethyl)-2-(methoxymethyl)oxazol-5-yl)(4-(5-fluorobenzo[d]oxazol-2-yl)-6,7-dihydro-1H-imidazo[4,5-c]pyridin-5(4H)-yl)methanone] | 1 to 5 µM
5 | O=C(c1ocnc1C(F)F)N1CCc2[nH]cnc2[C@@H]1c1nc2cccc(F)c2o1 [Example 174, (R)-(4-(difluoromethyl)oxazol-5-yl)(4-(7-fluorobenzo[d]oxazol-2-yl)-6,7-dihydro-1H-imidazo[4,5-c]pyridin-5(4H)-yl)methanone] | ≤ 0.5 µM
6 | Cc1cccc2oc([C@@H]3c4nc[nH]c4CCN3C(=O)c3ocnc3C(F)F)nc12 [Example 382, (S)-(4-(difluoromethyl)oxazol-5-yl)(4-(4-methylbenzo[d]oxazol-2-yl)-6,7-dihydro-1H-imidazo[4,5-c]pyridin-5(4H)-yl)methanone] | ≤ 0.5 µM
7 | COc1cccc2oc([C@H]3c4nc[nH]c4CCN3C(=O)c3oc(C(C)(C)O)nc3C(F)F)nc12 [Example 428, (R)-(4-(difluoromethyl)-2-(2-hydroxypropan-2-yl)oxazol-5-yl)(4-(4-methoxybenzo[d]oxazol-2-yl)-6,7-dihydro-1H-imidazo[4,5-c]pyridin-5(4H)-yl)methanone] | 1 to 5 µM
8 | O=C(c1cnn2cc(N3CCC(F)CC3)ccc12)N1CCc2[nH]cnc2[C@H]1c1nc2cccc(F)c2o1 [Example 369, (S)-(4-(7-fluorobenzo[d]oxazol-2-yl)-6,7-dihydro-1H-imidazo[4,5-c]pyridin-5(4H)-yl)(6-(4-fluoropiperidin-1-yl)pyrazolo[1,5-a]pyridin-3-yl)methanone] | ≤ 0.5 µM
9 | Cc1cc(F)ccc1-c1nnc(C(=O)N2CCc3[nH]cnc3[C@H]2c2nc3cc(F)ccc3o2)o1 [Example 77, (S)-(5-(4-fluoro-2-methylphenyl)-1,3,4-oxadiazol-2-yl)(4-(5-fluorobenzo[d]oxazol-2-yl)-6,7-dihydro-1H-imidazo[4,5-c]pyridin-5(4H)-yl)methanone] | 0.5 to 1 µM
10 | Nc1cn2ncc(C(=O)N3CCc4[nH]cnc4[C@H]3c3nc4cc(F)ccc4o3)c2cc1Cl [Example 177, (S)-(6-amino-5-chloropyrazolo[1,5-a]pyridin-3-yl)(4-(5-fluorobenzo[d]oxazol-2-yl)-6,7-dihydro-1H-imidazo[4,5-c]pyridin-5(4H)-yl)methanone] | ≤ 0.5 µM

Results, then the compound that gave them:

Row | AC50 | Compound
11 | ≤ 0.5 µM | Cc1ccc2oc([C@@H]3c4nc[nH]c4CCN3C(=O)c3oc(-c4cncn4C)nc3C(F)F)nc2c1 [Example 758, (S)-(4-(difluoromethyl)-2-(1-methyl-1H-imidazol-5-yl)oxazol-5-yl)(4-(5-methylbenzo[d]oxazol-2-yl)-6,7-dihydro-1H-imidazo[4,5-c]pyridin-5(4H)-yl)methanone]
12 | 0.5 to 1 µM | Cc1ccc2nc([C@@H]3c4nc[nH]c4CCN3C(=O)c3nnc(-c4ccn(C(F)F)n4)o3)oc2c1 [Example 703, (S)-(5-(1-(difluoromethyl)-1H-pyrazol-3-yl)-1,3,4-oxadiazol-2-yl)(4-(6-methylbenzo[d]oxazol-2-yl)-6,7-dihydro-1H-imidazo[4,5-c]pyridin-5(4H)-yl)methanone]
13 | ≤ 0.5 µM | COc1cc(F)c2oc([C@@H]3c4nc[nH]c4CCN3C(=O)c3ocnc3C(F)F)nc2c1 [Example 663, (S)-(4-(difluoromethyl)oxazol-5-yl)(4-(7-fluoro-5-methoxybenzo[d]oxazol-2-yl)-6,7-dihydro-1H-imidazo[4,5-c]pyridin-5(4H)-yl)methanone]
14 | ≤ 0.5 µM | O=C(c1nnc(-c2ccn(C(F)F)n2)o1)N1CCc2[nH]cnc2[C@H]1c1nc2cccc(F)c2o1 [Example 862, (S)-(5-(1-(difluoromethyl)-1H-pyrazol-3-yl)-1,3,4-oxadiazol-2-yl)(4-(7-fluorobenzo[d]oxazol-2-yl)-6,7-dihydro-1H-imidazo[4,5-c]pyridin-5(4H)-yl)methanone]
15 | ≤ 0.5 µM | CC(C)(O)c1nc(C(F)F)c(C(=O)N2CCc3[nH]cnc3[C@H]2c2nc3c(OC(F)(F)F)cccc3o2)o1 [Example 533, (S)-(4-(difluoromethyl)-2-(2-hydroxypropan-2-yl)oxazol-5-yl)(4-(4-(trifluoromethoxy)benzo[d]oxazol-2-yl)-6,7-dihydro-1H-imidazo[4,5-c]pyridin-5(4H)-yl)methanone]
16 | ≥ 5 µM | Cc1nc(C(=O)N2CCc3[nH]cnc3[C@@H]2c2nc3c(C)cccc3o2)n(C)n1 [Example 820, (R)-(1,3-dimethyl-1H-1,2,4-triazol-5-yl)(4-(4-methylbenzo[d]oxazol-2-yl)-6,7-dihydro-1H-imidazo[4,5-c]pyridin-5(4H)-yl)methanone]
17 | 1 to 5 µM | COc1cc(F)cc2nc([C@H]3c4nc[nH]c4CCN3C(=O)c3oc(C(C)(C)O)nc3C(F)F)oc12 [Example 716, (R)-(4-(difluoromethyl)-2-(2-hydroxypropan-2-yl)oxazol-5-yl)(4-(5-fluoro-7-methoxybenzo[d]oxazol-2-yl)-6,7-dihydro-1H-imidazo[4,5-c]pyridin-5(4H)-yl)methanone]
18 | ≤ 0.5 µM | Cc1cccc2nc([C@@H]3c4nc[nH]c4CCN3C(=O)c3nnc(-c4ccccn4)o3)oc12 [Example 567, (S)-(4-(7-methylbenzo[d]oxazol-2-yl)-6,7-dihydro-1H-imidazo[4,5-c]pyridin-5(4H)-yl)(5-(pyridin-2-yl)-1,3,4-oxadiazol-2-yl)methanone]
19 | 1 to 5 µM | Cc1ccc2oc([C@H]3c4nc[nH]c4CCN3C(=O)c3nnc(-c4cn[nH]c4)o3)nc2c1 [Example 492, (R)-(5-(1H-pyrazol-4-yl)-1,3,4-oxadiazol-2-yl)(4-(5-methylbenzo[d]oxazol-2-yl)-6,7-dihydro-1H-imidazo[4,5-c]pyridin-5(4H)-yl)methanone]
20 | ≤ 0.5 µM | COc1cccc2nc([C@@H]3c4nc[nH]c4CCN3C(=O)c3cc(C)nn3C)oc12 [Example 821, (S)-(1,3-dimethyl-1H-pyrazol-5-yl)(4-(7-methoxybenzo[d]oxazol-2-yl)-6,7-dihydro-1H-imidazo[4,5-c]pyridin-5(4H)-yl)methanone]
21 | ≤ 0.5 µM | Cc1cccc2oc([C@@H]3c4nc[nH]c4CCN3C(=O)c3ccnn3C(F)F)nc12 [Example 449, (S)-(1-(difluoromethyl)-1H-pyrazol-5-yl)(4-(4-methylbenzo[d]oxazol-2-yl)-6,7-dihydro-1H-imidazo[4,5-c]pyridin-5(4H)-yl)methanone]
22 | 0.5 to 1 µM | O=C(c1nnc(-c2cnn(C3CCC3)c2)o1)N1CCc2[nH]cnc2[C@@H]1c1nc2c(F)ccc(F)c2o1 [Example 812, (R)-(5-(1-cyclobutyl-1H-pyrazol-4-yl)-1,3,4-oxadiazol-2-yl)(4-(4,7-difluorobenzo[d]oxazol-2-yl)-6,7-dihydro-1H-imidazo[4,5-c]pyridin-5(4H)-yl)methanone]
23 | 0.5 to 1 µM | Cc1ccc2oc([C@@H]3c4nc[nH]c4CCN3C(=O)c3ncnn3C)nc2c1 [Example 745, (S)-(1-methyl-1H-1,2,4-triazol-5-yl)(4-(5-methylbenzo[d]oxazol-2-yl)-6,7-dihydro-1H-imidazo[4,5-c]pyridin-5(4H)-yl)methanone]

Same assay, conditions: A375 cells expressing R408W PAH; 24 hrs with compound, then 20 μM sepiapterin and 800 μM 13C9,15N-Phenylalanine for 4 hours; 13C-Tyrosine by LC-MS; average where tested multiple times

Row | AC50 | Compound
24 | 1 to 5 µM | NCc1ccc2c(C(=O)N3CCc4[nH]cnc4C3c3nc4cc(F)ccc4o3)cnn2c1 (stereo not drawn)
25 | ≥ 5 µM | O=C(c1cnn(-c2ccccn2)c1Cl)N1CCc2[nH]cnc2C1c1nc2cc(F)ccc2o1 (stereo not drawn)
26 | 1 to 5 µM | Cn1nc(C(F)F)nc1C(=O)N1CCc2[nH]cnc2C1c1nc2ccc(F)cc2o1 (stereo not drawn)
27 | ≥ 5 µM | CC(C)(O)c1cc(C(=O)N2CCc3[nH]cnc3C2c2nc3c(F)cccc3o2)no1 (stereo not drawn)
28 | ≥ 5 µM | Cc1ccc2oc(C3c4nc[nH]c4CCN3C(=O)c3nc(C)nn3C)nc2c1 (stereo not drawn)
29 | 1 to 5 µM | Cc1nc(C2(O)CCC2)oc1C(=O)N1CCc2[nH]cnc2C1c1nc2cc(F)ccc2o1 (stereo not drawn)
30 | ≥ 5 µM | O=C(c1nnc(-c2c[nH]nc2C(F)(F)F)o1)N1CCc2[nH]cnc2C1c1nc2cc(F)ccc2o1 (stereo not drawn)
31 | 1 to 5 µM | O=C(c1nnc(-c2cnn(C(F)F)c2)o1)N1CCc2[nH]cnc2C1c1nc2cc(F)ccc2o1 (stereo not drawn)
32 | ≥ 5 µM | Cn1nc(N)cc1C(=O)N1CCc2[nH]cnc2C1c1nc2cc(F)ccc2o1 (stereo not drawn)
33 | 1 to 5 µM | Cn1cnc(-c2nnc(C(=O)N3CCc4[nH]cnc4C3c3nc4cc(F)ccc4o3)o2)c1 (stereo not drawn)

— patent US20250171437A1 (Agios Pharmaceuticals,Inc., priority 2022, published 2025)
